Results on 1 compound are retold here after US20180228861A1, “COMPOSITION FOR TREATING DIABETES AND DYSLIPIDEMIA OBTAINED FROM THE EXTRACT OF COSTUS PICTUS D.DON PLANT AND A METHOD OF PREPARING THE SAME” (ARJUNA NATURAL EXTRACTS, LTD., priority 2012, published 2018).

Structures are written as SMILES.

Holding throughout (type): in vivo
The subject of assay [1] is high fat diet-induced insulin resistance model with C57/BL 6J mice. The assay can be described thus: Lipid profile in high fat diet-induced insulin resistance model. The settings on record: high fat diet induced diabetes mellitus, extracts 40 mg/kg orally for 6 weeks, metformin as standard drug. The procedure: The study was designed to evaluate the effect of different fractions of Costus pictus D. Don on high fat-induced resistance Type 2diabetic model (HFD). Six week-old C57B1/6J mice were allowed free access to food and water. They were housed under identical standard conditions. The animals were kept for acclimatization for a period of 7 days. After 7 days, the mice were randomly divided into six groups of six mice each. The normal control group was treated with normal regular diet and the rest of the animals were fed with high fat diet for 6 weeks. […] The experimental design was as follows:
(§1) Body weights were determined biweekly. At the end of experimental period, blood samples were collected to determine plasma glucose, insulin, leptin, glycosylated hemoglobin, triglycerides, total cholesterol, LDL, HDL and VLDL.

Assay [2] has the same test system. The assay can be described thus: Blood glucose in high fat diet-induced insulin resistance model. The note with it: HFD mice, end of experimental period; extracts 40 mg/kg orally for 6 weeks, metformin as standard drug. Here is the method: (§2) The study was designed to evaluate the effect of different fractions of Costus pictus D. Don on high fat-induced resistance Type 2diabetic model (HFD). Six week-old C57B1/6J mice were allowed free access to food and water. They were housed under identical standard conditions. The animals were kept for acclimatization for a period of 7 days. After 7 days, the mice were randomly divided into six groups of six mice each. The normal control group was treated with normal regular diet and the rest of the animals were fed with high fat diet for 6 weeks. After 6 weeks, methanolic extract of fresh leaves of Costus pictus D. Don, and the extract had low oxalic acid and/or oxalates content, silica purified ethyl acetate extract of methanolic extract of fresh leaves of Costus pictus D. Don where the extract had low oxalic acid and/or oxalates content and ethyl acetate extract of 90% methanolic extract of fresh leaves of Costus pictus D. Don where the extract had low oxalic acid and/or oxalates content were administered at 40 mg/kg p.o. for 6 consecutive weeks. The experimental design was as follows:
as §1

Assay [3] has the same test system. The assay can be described thus: Body weight in high fat diet-induced insulin resistance model.
Description: Evaluation of effect of different fractions of Costus pictus D. Don on high fat diet-induced insulin resistance model with C57/BL 6J mice.
as §2
Group 3—HFD for 6 weeks and Standard drug treated group for 6 weeks—metformin.
Group 4—HFD for 6 weeks and methanolic extract of fresh leaves of Costus pictus D. Don where the extract had low oxalic acid and/or oxalates content (Sample 2 prepared as per example 1) at 40 mg/kg orally for 6 weeks.
Group 5—HFD for 6 weeks and silica purified ethyl acetate extract of 90% methanolic extract of fresh leaves of Costus pictus D. Don where the extract had low oxalic acid and/or oxalates content (Sample 5 prepared as per example 4) at 40 mg/kg orally for 6 weeks.
Group 6—HFD for 6 weeks and ethyl acetate extract of 90% methanol extract of fresh leaves of Costus pictus D. Don where the extract had low oxalic acid and/or oxalates content (Sample 4 prepared as per example 3) at 40 mg/kg orally for 6 weeks.
as §1

Assay [4] has the same test system. The assay can be described thus: Serum insulin and glycosylated hemoglobin in high fat diet-induced insulin resistance model. The settings on record: high fat diet induced diabetes mellitus, extracts 40 mg/kg orally for 6 weeks, metformin as standard drug. Here is the method:
as §2, §1

In assay [1], `CN(C)C(=N)N=C(N)N` [metformin] gave an HDL of 99 mg/dL, an LDL of 17 mg/dL and a VLDL of 6 mg/dL. In addition, the TC in assay [1] (total cholesterol) came to 122 mg/dL. In addition, the TG in assay [1] (triglycerides) came to 30 mg/dL. Moreover, in assay [2], the Blood glucose came to 100 mg/dL. In assay [3] (C57/BL 6J mice on high fat diet, week 0, before treatment), the “Body weight, week 0” value is given as 15 grams. Besides, in assay [3] (C57/BL 6J mice on high fat diet, week 2, before treatment), the “Body weight, week 2” value is reported as 30 grams. In addition, the “Body weight, week 4” value in assay [3] (C57/BL 6J mice on high fat diet, week 4, before treatment) is 46 grams. Further, the “Body weight, week 6” value in assay [3] (C57/BL 6J mice on high fat diet, week 6, start of treatment) was found to be 61 grams. In assay [3] (HFD mice, week 8, extracts 40 mg/kg orally from week 6, metformin as standard drug), the “Body weight, week 8” value was determined as 48 grams. In addition, the “Body weight, week 10” value in assay [3] (HFD mice, week 10, extracts 40 mg/kg orally from week 6, metformin as standard drug) came to 35 grams. Further, the “Body weight, week 12” value in assay [3] (HFD mice, week 12, extracts 40 mg/kg orally from week 6, metformin as standard drug) stood at 35 grams. Moreover, the “Glycosylated Hb” value in assay [4] is listed as 0.5 % of total Hb. Further, in assay [4] (serum), the Insulin turned out to be 1.7 ng/mL.
